From patent US10202360B2 (CELGENE QUANTICEL RESEARCH, INC., priority 2016, dated 2019)

target: CREBBP (Homo sapiens (Human), UniProt Q92793); experiment: In vitro enzyme inhibition assay - CREBBP inhibition (AlphaScreen, biotinylated H4-tetraacetyl peptide); format: binding; settings: Table 28; AlphaScreen, H4-tetraacetyl peptide
In short: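 His-tagged CREBBP expressed in E. coli (50 nM final) incubated with biotinylated H4K5/8/12/16(Ac) peptide (20 nM final) in HEPES pH 7.3 buffer, 0.4% DMSO, 20 min at room temperature.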

Chain of CREBBP (Q92793 1081-1197): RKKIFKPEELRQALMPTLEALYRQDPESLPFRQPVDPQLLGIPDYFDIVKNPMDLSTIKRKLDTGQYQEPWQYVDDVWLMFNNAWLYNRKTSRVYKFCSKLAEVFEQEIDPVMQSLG

IC50 [nM] | SMILES
< 500 | Cc1cccc(F)c1Oc1nc(-c2ccc(=O)n(C)c2)cc(N(C)Cc2ccccc2)n1 [Example 293, 5-[6-(Benzyl-methyl-amino)-2-(2-fluoro-6-methyl-phenoxy)-pyrimidin-4-yl]-1-methyl-1H-pyridin-2-one]
< 500 | Cc1cccc(F)c1Oc1nc(N)cc(-c2cc(C)c(=O)n(C)c2)n1 [Example 294, 5-[6-Amino-2-(2-fluoro-6-methyl-phenoxy)-pyrimidin-4-yl]-1,3-dimethyl-1H-pyridin-2-one]
< 500 | CCNc1cc(-c2cc(C)c(=O)n(C)c2)nc(Oc2c(C)cccc2F)n1 [Example 295, 5-[6-Ethylamino-2-(2-fluoro-6-methyl-phenoxy)-pyrimidin-4-yl]-1,3-dimethyl-1H-pyridin-2-one]
< 500 | Cc1cccc(F)c1Oc1nc(NCc2ccccc2)cc(-c2cc(C)c(=O)n(C)c2)n1 [Example 296, 5-[6-Benzylamino-2-(2-fluoro-6-methyl-phenoxy)-pyrimidin-4-yl]-1,3-dimethyl-1H-pyridin-2-one]
< 500 | Cc1cccc(F)c1Oc1nc(-c2cc(C)c(=O)n(C)c2)cc(N(C)Cc2ccccc2)n1 [Example 297, 5-[6-(Benzyl-methyl-amino)-2-(2-fluoro-6-methyl-phenoxy)-pyrimidin-4-yl]-1,3-dimethyl-1H-pyridin-2-one]
< 500 | Cc1cccc(F)c1Oc1nc(NC(C)c2ccccc2)cc(-c2ccc(=O)n(C)c2)n1 (centres unmarked) [Example 298, 5-[2-(2-Fluoro-6-methyl-phenoxy)-6-(1-phenyl-ethylamino)-pyrimidin-4-yl]-1-methyl-1H-pyridin-2-one]
< 500 | Cc1ccccc1C(C)Nc1cc(-c2ccc(=O)n(C)c2)nc(Oc2c(C)cccc2F)n1 (centres unmarked) [Example 299, 5-[2-(2-Fluoro-6-methyl-phenoxy)-6-(1-o-tolyl-ethylamino)-pyrimidin-4-yl]-1-methyl-1H-pyridin-2-one]
< 500 | Cc1cccc(C)c1CNc1cc(-c2ccc(=O)n(C)c2)nc(Oc2c(C)cccc2F)n1 [Example 300, 5-[6-(2,6-Dimethyl-benzylamino)-2-(2-fluoro-6-methyl-phenoxy)-pyrimidin-4-yl]-1-methyl-1H-pyridin-2-one]
< 500 | Cc1ccc(C)c(CNc2cc(-c3ccc(=O)n(C)c3)nc(Oc3c(C)cccc3F)n2)c1 [Example 301, 5-[6-(2,5-Dimethyl-benzylamino)-2-(2-fluoro-6-methyl-phenoxy)-pyrimidin-4-yl]-1-methyl-1H-pyridin-2-one]
< 500 | Cc1cccc(F)c1Oc1nc(NCc2ccccn2)cc(-c2ccc(=O)n(C)c2)n1 [Example 302, 5-{2-(2-Fluoro-6-methyl-phenoxy)-6-[(pyridin-2-ylmethyl)-amino]-pyrimidin-4-yl}-1-methyl-1H-pyridin-2-one]
< 500 | Cc1cccc(F)c1Oc1nc(NCc2cccnc2)cc(-c2ccc(=O)n(C)c2)n1 [Example 303, 5-{2-(2-Fluoro-6-methyl-phenoxy)-6-[(pyridin-3-ylmethyl)-amino]-pyrimidin-4-yl}-1-methyl-1H-pyridin-2-one]
< 500 | CCCCNc1cc(-c2ccc(=O)n(C)c2)nc(Oc2c(C)cccc2F)n1 [Example 304, 5-[6-Butylamino-2-(2-fluoro-6-methyl-phenoxy)-pyrimidin-4-yl]-1-methyl-1H-pyridin-2-one]
< 500 | CCC[C@@H](C)Nc1cc(-c2ccc(=O)n(C)c2)nc(Oc2c(C)cccc2F)n1 [Example 305]
< 500 | Cc1cccc(F)c1Oc1nc(N[C@H](C)c2ccccc2)cc(-c2ccc(=O)n(C)c2)n1 [Example 306, (R)-5-[2-(2-Fluoro-6-methyl-phenoxy)-6-(1-phenyl-ethylamino)-pyrimidin-4-yl]-1-methyl-1H-pyridin-2-one]
< 500 | Cc1cccc(F)c1Oc1nc(N[C@@H]2CCCc3ccccc32)cc(-c2ccc(=O)n(C)c2)n1 [Example 307, (R)-5-[2-(2-Fluoro-6-methyl-phenoxy)-6-(1,2,3,4-tetrahydro-naphthalen-1-ylamino)-pyrimidin-4-yl]-1-methyl-1H-pyridin-2-one]
< 500 | CCC[C@H](C)Nc1cc(-c2ccc(=O)n(C)c2)nc(Oc2c(C)cccc2F)n1 [Example 308]
< 500 | Cc1cccc(F)c1Oc1nc(NCCC(C)C)cc(-c2ccc(=O)n(C)c2)n1 [Example 309, 5-[2-(2-Fluoro-6-methyl-phenoxy)-6-(3-methyl-butylamino)-pyrimidin-4-yl]-1-methyl-1H-pyridin-2-one]
< 500 | Cc1cccc(F)c1Oc1nc(N[C@@H](C)c2ccccc2)cc(-c2ccc(=O)n(C)c2)n1 [Example 310, (S)-5-[2-(2-Fluoro-6-methyl-phenoxy)-6-(1-phenyl-ethylamino)-pyrimidin-4-yl]-1-methyl-1H-pyridin-2-one]
< 500 | Cc1cccc(F)c1Oc1nc(N[C@H]2CCCc3ccccc32)cc(-c2ccc(=O)n(C)c2)n1 [Example 311, (S)-5-[2-(2-Fluoro-6-methyl-phenoxy)-6-(1,2,3,4-tetrahydro-naphthalen-1-ylamino)-pyrimidin-4-yl]-1-methyl-1H-pyridin-2-one]

IC50 [nM] | SMILES
< 500 | CCCCNc1cc(-c2ccc(=O)n(C)c2)nc(Oc2c(C)cccc2Cl)n1 [Example 312, 5-[6-Butylamino-2-(2-chloro-6-methyl-phenoxy)-pyrimidin-4-yl]-1-methyl-1H-pyridin-2-one]
< 500 | CCC[C@@H](C)Nc1cc(-c2ccc(=O)n(C)c2)nc(Oc2c(C)cccc2Cl)n1 [Example 313, (R)-5-[2-(2-Chloro-6-methyl-phenoxy)-6-(1-methyl-butylamino)-pyrimidin-4-yl]-1-methyl-1H-pyridin-2-one]
< 500 | CCC[C@H](C)Nc1cc(-c2ccc(=O)n(C)c2)nc(Oc2c(C)cccc2Cl)n1 [Example 314, (S)-5-[2-(2-Chloro-6-methyl-phenoxy)-6-(1-methyl-butylamino)-pyrimidin-4-yl]-1-methyl-1H-pyridin-2-one]
< 500 | Cc1cccc(Cl)c1Oc1nc(NCCC(C)C)cc(-c2ccc(=O)n(C)c2)n1 [Example 315, 5-[2-(2-Chloro-6-methyl-phenoxy)-6-(3-methyl-butylamino)-pyrimidin-4-yl]-1-methyl-1H-pyridin-2-one]
< 500 | CCCCNc1cc(-c2ccc(=O)n(C)c2)nc(Oc2c(C)cccc2C#N)n1 [Example 316, 2-[4-Butylamino-6-(1-methyl-6-oxo-1,6-dihydro-pyridin-3-yl)-pyrimidin-2-yloxy]-3-methyl-benzonitrile]
< 500 | CCC[C@@H](C)Nc1cc(-c2ccc(=O)n(C)c2)nc(Oc2c(C)cccc2C#N)n1 [Example 317, (R)-3-Methyl-2-[4-(1-methyl-butylamino)-6-(1-methyl-6-oxo-1,6-dihydro-pyridin-3-yl)-pyrimidin-2-yloxy]-benzonitrile]
< 500 | Cc1cccc(C#N)c1Oc1nc(N[C@H](C)c2ccccc2)cc(-c2ccc(=O)n(C)c2)n1 [Example 318, (R)-3-Methyl-2-[4-(1-methyl-6-oxo-1,6-dihydro-pyridin-3-yl)-6-(1-phenyl-ethylamino)-pyrimidin-2-yloxy]-benzonitrile]
< 500 | Cc1cccc(C#N)c1Oc1nc(NCc2ccccn2)cc(-c2ccc(=O)n(C)c2)n1 [Example 319, 3-Methyl-2-{4-(1-methyl-6-oxo-1,6-dihydro-pyridin-3-yl)-6-[(pyridin-2-ylmethyl)-amino]-pyrimidin-2-yloxy}-benzonitrile]
< 500 | Cc1cccc(C#N)c1Oc1nc(NCc2ccccc2)cc(-c2ccc(=O)n(C)c2)n1 [Example 320, 2-[4-Benzylamino-6-(1-methyl-6-oxo-1,6-dihydro-pyridin-3-yl)-pyrimidin-2-yloxy]-3-methyl-benzonitrile]
< 500 | CCC[C@H](C)Nc1cc(-c2ccc(=O)n(C)c2)nc(Oc2c(C)cccc2C#N)n1 [Example 321, (S)-3-Methyl-2-[4-(1-methyl-butylamino)-6-(1-methyl-6-oxo-1,6-dihydro-pyridin-3-yl)-pyrimidin-2-yloxy]-benzonitrile]
< 500 | Cc1cccc(C#N)c1Oc1nc(N[C@@H](C)c2ccccc2)cc(-c2ccc(=O)n(C)c2)n1 [Example 322, (S)-3-Methyl-2-[4-(1-methyl-6-oxo-1,6-dihydro-pyridin-3-yl)-6-(1-phenyl-ethylamino)-pyrimidin-2-yloxy]-benzonitrile]
< 500 | Cc1cccc(C#N)c1Oc1nc(NCc2cccnc2)cc(-c2ccc(=O)n(C)c2)n1 [Example 323, 3-Methyl-2-{4-(1-methyl-6-oxo-1,6-dihydro-pyridin-3-yl)-6-[(pyridin-3-ylmethyl)-amino]-pyrimidin-2-yloxy}-benzonitrile]
< 500 | COc1nc(NCc2ccccc2)cc(-c2ccc(=O)n(C)c2)n1 [Example 324, 5-(6-Benzylamino-2-methoxy-pyrimidin-4-yl)-1-methyl-1H-pyridin-2-one]
500 to 5000 | CCCCNc1cc(-c2ccc(=O)n(C)c2)nc(OC)n1 [Example 325, 5-(6-Butylamino-2-methoxy-pyrimidin-4-yl)-1-methyl-1H-pyridin-2-one]
500 to 5000 | CCCC(C)Nc1cc(-c2ccc(=O)n(C)c2)nc(OC)n1 (centres unmarked) [Example 326, 5-[2-Methoxy-6-(1-methyl-butylamino)-pyrimidin-4-yl]-1-methyl-1H-pyridin-2-one]
< 500 | COc1nc(NC(C)c2ccccc2)cc(-c2ccc(=O)n(C)c2)n1 (centres unmarked) [Example 327, 5-[2-Methoxy-6-(1-phenyl-ethylamino)-pyrimidin-4-yl]-1-methyl-1H-pyridin-2-one]
< 500 | COc1nc(NCc2ccccn2)cc(-c2ccc(=O)n(C)c2)n1 [Example 328, 5-{2-Methoxy-6-[(pyridin-2-ylmethyl)-amino]-pyrimidin-4-yl}-1-methyl-1H-pyridin-2-one]
< 500 | COc1nc(NCCc2ccccc2)cc(-c2ccc(=O)n(C)c2)n1 [Example 329, 5-(2-Methoxy-6-phenethylamino-pyrimidin-4-yl)-1-methyl-1H-pyridin-2-one]
< 500 | COc1nc(NCc2cccnc2)cc(-c2ccc(=O)n(C)c2)n1 [Example 330, 5-{2-Methoxy-6-[(pyridin-3-ylmethyl)-amino]-pyrimidin-4-yl}-1-methyl-1H-pyridin-2-one]
